In ChEMBL document CHEMBL5518237, “Design of Novel 2-Phenylquinazolin-4-amines as Selective CYP1B1 Inhibitors for Overcoming Paclitaxel Resistance in A549 Cells” (J Med Chem, 2024):
One block for each molecule: values may come before it. Calls of active or inactive are those of the source. The calls are words filed in the database; no cut-off is given here.

Assays:
Cytochrome P450 1A1 = biological target: T1, Cytochrome P450 1A1 (Homo sapiens, UniProt P04798); test: Inhibition of human recombinant CYP1A1 using 7-ethoxyresorufin as substrate preincubated with enzyme for 5 mins followed by fluorescent substrate and NADPH addition and measured after 15 mins by EROD assay; assay type: ADME
T1 sequence (P04798 whole entry): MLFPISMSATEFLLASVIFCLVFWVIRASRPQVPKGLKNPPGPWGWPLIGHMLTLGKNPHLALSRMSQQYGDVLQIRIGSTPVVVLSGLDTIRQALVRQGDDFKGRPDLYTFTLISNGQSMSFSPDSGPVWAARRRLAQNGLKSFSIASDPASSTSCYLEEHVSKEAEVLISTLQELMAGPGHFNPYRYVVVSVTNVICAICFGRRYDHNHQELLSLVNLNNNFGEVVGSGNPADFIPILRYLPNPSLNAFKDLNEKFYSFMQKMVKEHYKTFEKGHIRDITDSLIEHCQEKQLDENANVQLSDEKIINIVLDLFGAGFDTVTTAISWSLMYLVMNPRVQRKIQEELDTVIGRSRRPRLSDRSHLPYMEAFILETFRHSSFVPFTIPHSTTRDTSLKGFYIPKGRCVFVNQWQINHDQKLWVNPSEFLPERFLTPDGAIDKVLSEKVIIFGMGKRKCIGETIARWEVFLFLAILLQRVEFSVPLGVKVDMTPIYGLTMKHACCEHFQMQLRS

Cytochrome P450 1A2 = biological target: T2, Cytochrome P450 1A2 (Homo sapiens, UniProt P05177); test: Inhibition of human recombinant CYP1A2 using 7-ethoxyresorufin as substrate preincubated with enzyme for 5 mins followed by fluorescent substrate and NADPH addition and measured after 50 mins by EROD assay; assay type: ADME
T2 sequence (P05177 whole entry): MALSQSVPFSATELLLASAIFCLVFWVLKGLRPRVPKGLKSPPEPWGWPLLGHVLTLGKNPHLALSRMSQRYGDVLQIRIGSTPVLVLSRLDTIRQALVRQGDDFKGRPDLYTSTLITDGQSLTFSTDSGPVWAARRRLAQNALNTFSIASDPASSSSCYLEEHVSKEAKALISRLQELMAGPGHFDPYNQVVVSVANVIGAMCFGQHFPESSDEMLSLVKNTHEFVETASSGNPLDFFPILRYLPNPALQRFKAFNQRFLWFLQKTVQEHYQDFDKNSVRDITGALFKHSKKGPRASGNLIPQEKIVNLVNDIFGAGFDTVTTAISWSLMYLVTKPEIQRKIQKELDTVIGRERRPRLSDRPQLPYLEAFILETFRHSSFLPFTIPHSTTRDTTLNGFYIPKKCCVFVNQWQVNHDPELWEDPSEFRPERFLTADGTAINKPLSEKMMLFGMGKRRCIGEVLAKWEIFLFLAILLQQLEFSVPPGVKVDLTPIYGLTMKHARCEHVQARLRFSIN

[1] = Selectivity ratio of IC50 for Inhibition of human recombinant CYP1A1 to IC50 for Inhibition of human recombinant CYP1B1; assay type: ADME; conditions: recombinant enzyme
Cytochrome P450 1B1 = biological target: T3, Cytochrome P450 1B1 (Homo sapiens, UniProt Q16678); test: Inhibition of human recombinant CYP1B1 using 7-ethoxyresorufin as substrate preincubated with enzyme for 5 mins followed by fluorescent substrate and NADPH addition and measured after 35 mins by EROD assay; assay type: ADME
T3 sequence (Q16678 whole entry): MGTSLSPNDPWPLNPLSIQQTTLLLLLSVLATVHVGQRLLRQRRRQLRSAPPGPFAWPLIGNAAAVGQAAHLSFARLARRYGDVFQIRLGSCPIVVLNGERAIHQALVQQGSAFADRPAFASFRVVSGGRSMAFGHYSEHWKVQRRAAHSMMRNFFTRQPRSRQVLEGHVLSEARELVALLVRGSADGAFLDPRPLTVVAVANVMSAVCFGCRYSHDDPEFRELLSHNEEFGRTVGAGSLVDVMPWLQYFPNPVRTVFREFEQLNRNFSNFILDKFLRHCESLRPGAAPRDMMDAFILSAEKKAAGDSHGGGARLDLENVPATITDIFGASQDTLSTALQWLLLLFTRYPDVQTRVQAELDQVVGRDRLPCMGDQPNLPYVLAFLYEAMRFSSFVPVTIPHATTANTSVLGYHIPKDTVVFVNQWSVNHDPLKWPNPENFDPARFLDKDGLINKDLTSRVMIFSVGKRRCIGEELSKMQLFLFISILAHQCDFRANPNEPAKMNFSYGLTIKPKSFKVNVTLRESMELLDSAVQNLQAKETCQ

A549 [2] = test: Cytotoxicity against human A549 cells assessed as reduction in cell viability at 0.625 to 20 uM incubated for 48 hrs by MTT assay; assay type: toxicity, cell-based; conditions: a549, 48 h, dose 0.625-20 µM
A549 [3] = test: Induction of apoptosis in DMBA-stimulated PTX resistant human A549 cells assessed as apoptosis rate at 5 uM incubated for 24 hrs by flow cytometry (reference value: 6.67 +/- 1.03%); assay type: functional
[4] = n-Octanol/water partition coefficient, logP of the compound by HPLC analysis; assay type: physicochemical; conditions: octanol/water
[5] = Selectivity ratio of IC50 for Inhibition of human recombinant CYP1A2 to IC50 for Inhibition of human recombinant CYP1B1; assay type: ADME; conditions: recombinant enzyme
HEK-293T = test: Cytotoxicity against human HEK293T cells assessed as reduction in cell viability at 0.625 to 20 uM incubated for 48 hrs by MTT assay; assay type: toxicity, cell-based; conditions: dose 0.625-20 µM
CYP1B1 [6] = biological target: T4, CYP1B1 (Homo sapiens, UniProt Q16678); test: Inhibition of human recombinant CYP1B1 using 7-ethoxyresorufin as substrate at 0.01 uM preincubated with enzyme for 5 mins followed by fluorescent substrate and NADPH addition and measured after 35 mins by EROD assay; assay type: ADME; conditions: recombinant CYP1B1, probe 7-ethoxyresorufin, time 40 min
T4 sequence (Q16678 whole entry): T3 sequence (Q16678 whole entry)

CYP1B1 [7] = biological target: T4, CYP1B1; test: Inhibition of human recombinant CYP1B1 using 7-ethoxyresorufin as substrate at 1 uM preincubated with enzyme for 5 mins followed by fluorescent substrate and NADPH addition and measured after 35 mins by EROD assay; assay type: ADME; conditions: recombinant CYP1B1, probe 7-ethoxyresorufin, time 40 min
[8] = n-Octanol/PBS partition coefficient, log D of the radiolabeled compound at 0.37 MBq at pH 7.4 by gamma-counting analysis; assay type: physicochemical; conditions: octanol/water
[9] = Drug uptake in Kunming mouse lungs assessed as radioactive accumulation treated with radiolabeled compound at 0.37 MBq, iv measured after 120 mins by gamma-counting analysis; assay type: ADME, organism-based, Lung; conditions: in vivo, 2 h
[10] = Drug uptake in kidney of mouse xenografted with human HCT-116 cells assessed as radioactive accumulation treated with radiolabeled compound at 0.37 MBq, iv measured after 240 mins by gamma-counting analysis; assay type: ADME, organism-based; conditions: in vivo, 4 h
[11] = Drug uptake in Kunming mouse intestine assessed as radioactive accumulation treated with radiolabeled compound at 0.37 MBq, iv measured after 120 mins by gamma-counting analysis; assay type: ADME, organism-based; conditions: in vivo, 2 h
[12] = Drug metabolism in Kunming mouse assessed as deiodination treated with radiolabeled compound at 0.37 MBq, iv measured after 120 mins by gamma-counting analysis; assay type: ADME, organism-based; conditions: in vivo, 2 h
[13] = Drug uptake in Kunming mouse thyroid assessed as radioactive accumulation treated with radiolabeled compound at 0.37 MBq, iv measured after 120 mins by gamma-counting analysis; assay type: ADME, organism-based, Thyroid gland; conditions: in vivo, 2 h
[14] = Drug uptake in Kunming mouse kidney assessed as radioactive accumulation treated with radiolabeled compound at 0.37 MBq, iv measured after 120 mins by gamma-counting analysis; assay type: ADME, organism-based; conditions: in vivo, 2 h
[15] = Drug uptake in human HCT-116 cells using radiolabeled compound at 0.037 MBq incubated for 240 mins by gamma-counting analysis; assay type: ADME, cell-based; conditions: hct-116, 4 h
[16] = Drug uptake in intestine of mouse xenografted with human HCT-116 cells assessed as radioactive accumulation treated with radiolabeled compound at 0.37 MBq, iv measured after 240 mins by gamma-counting analysis; assay type: ADME, organism-based; conditions: in vivo, 4 h
[17] = Drug uptake in human A549 cells using radiolabeled compound at 0.037 MBq incubated for 120 mins by gamma-counting analysis; assay type: ADME, cell-based; conditions: a549, 2 h
[18] = Drug uptake in HCT-116 cells bearing mouse assessed as ratio of radioactive accumulation in tumor to muscle treated with radiolabeled compound at 0.37 MBq, iv measured after 30 mins by gamma-counting analysis; assay type: ADME, organism-based; conditions: in vivo, 0.5 h
[19] = Drug uptake in HCT-116 cells bearing mouse assessed as ratio of radioactive accumulation in tumor to muscle treated with radiolabeled compound at 0.37 MBq, iv measured after 240 mins by gamma-counting analysis; assay type: ADME, organism-based; conditions: in vivo, 4 h
[20] = Drug uptake in human HEK293T cells using radiolabeled compound at 0.037 MBq incubated for 120 mins by gamma-counting analysis; assay type: ADME, cell-based; conditions: hek-293t, 2 h
[21] = Drug uptake in liver of mouse xenografted with human HCT-116 cells assessed as radioactive accumulation treated with radiolabeled compound at 0.37 MBq, iv measured after 240 mins by gamma-counting analysis; assay type: ADME, organism-based; conditions: in vivo, 4 h
[22] = Drug metabolism in mouse xenografted with human HCT-116 cells assessed as deiodination treated with radiolabeled compound at 0.37 MBq, iv measured after 240 mins by gamma-counting analysis; assay type: ADME, organism-based; conditions: 4 h
[23] = Drug uptake in human HCT-116 cells using radiolabeled compound at 0.037 MBq incubated for 120 mins by gamma-counting analysis; assay type: ADME, cell-based; conditions: hct-116, 2 h
A549 [24] = test: Inhibition of tumor metastasis in DMBA-stimulated PTX resistant human A549 cells assessed as inhibition of cell invasion at 10 uM incubated for 24 hrs by Transwell assay; assay type: functional, cell-based
A549 [25] = test: Inhibition of tumor metastasis in DMBA-stimulated PTX resistant human A549 cells assessed as inhibition of cell migration at 10 uM incubated for 48 hrs by wound healing assay; assay type: functional, cell-based
A549 [26] = test: Reversal of DMBA-stimulated PTX resistance in human A549 cells assessed as decrease in cell viability at 10 uM incubated for 24 hrs in presence of DMBA and paclitaxel by MTT assay; assay type: functional, cell-based

IC50 (Cytochrome P450 1A1): 27.4 nM
IC50 (Cytochrome P450 1A2): 827 nM
IC50 (Cytochrome P450 1B1): 0.000168 nM
logP [4]: 3.15
inhibition at 35 min, 0.01 µM (CYP1B1 [6]): 96.6%
inhibition at 35 min, 1 µM (CYP1B1 [7]): 97.1%
SMILES: CNc1nc(-c2ccc(I)cc2)nc2ccccc12.Cl
Ratio IC50 [1]: 1.63 10^5No_unit
Activity (A549 [2]): Non-Toxic
Activity (A549 [3]): 32.84%
Ratio IC50 [5]: 4.92 10^6No_unit
Activity (HEK-293T): Non-Toxic

IC50 (Cytochrome P450 1A1): 5.74 nM
IC50 (Cytochrome P450 1A2): 1240 nM
logD [8]: 3.24
Drug uptake [9]: Active
Drug uptake [10]: Active
Drug uptake [11]: Active
Drug metabolism [12]: Metabolite_Notdetected
Drug uptake [13]: Active
Drug uptake [14]: Active
Drug uptake [15]: 23.95%
Drug uptake [16]: Active
Drug uptake [17]: Active
Ratio [18]: 1.27
Ratio [19]: 1.84
Drug uptake [20]: Active
Drug uptake [21]: Active
Drug metabolism [22]: Metabolite_Notdetected
Drug uptake [23]: Active
SMILES: Nc1nc(-c2ccc(I)cc2)nc2ccccc12
Ratio IC50 [1]: 287
Ratio IC50 [5]: 6.23 10^4No_unit

IC50 (Cytochrome P450 1A1): 86.7 nM
inhibition at 35 min, 0.01 µM (CYP1B1 [6]): 61%
inhibition at 35 min, 1 µM (CYP1B1 [7]): 95.1%
SMILES: O=c1cc(-c2ccccc2)oc2c1ccc1ccccc12 [ALPHA-NAPHTHOFLAVONE]
Activity (A549 [3]): 15.53%
inhibition (A549 [24]): Active
inhibition (A549 [25]): Active
Activity (A549 [26]): Active
